Assay results: patent US20060110401A1, “Mixture of peptides from c and ns3 proteins of the hepatitis c virus and applications thereof” (priority 2002, published 2006)
Read-outs that look alike come from different tables or passages of the source. Residues, ends and D or L forms follow the SMILES beside them.

What was measured:
HLA-DR1 (DRB1*0101) = target: T1, HLA-DR1 (DRB1*0101) (Homo sapiens, UniProt P01903+P01911, A100R/D57E/F55L/F60I/F76Y/I96L/L162R/M171V/P40L/Q125E/R42F/V115G/Y59C); test: biochemical; format: binding; conditions: for IC50: DRB1*0101
T1 construct: endogenous in cells; host or cells: homozygous EBV-transformed human B lymphocyte lines; immunopurified with antibody L243

HLA-DR7 (DRB1*0701) = HLA-DR7 (DRB1*0701) (Homo sapiens, UniProt P01903+P01911, A100R/A102G/A103Q/D57E/D86V/E43K/F76Y/K127E/L162R/M171V/P40G/Q125H/Q99D/R33Q/R42Y/R54Q/S133A/S66F/T210M/V115G/Y107V/Y59L/Y89S); test: biochemical; format: binding; conditions: read-out: binds with good affinity to DR7
HLA-DR11 (DRB1*1101) = HLA-DR11 (DRB1*1101) (Homo sapiens, UniProt P01903+P01911, A100R/A169T/A87E/I96F/K41T/L162R/M171V/P40S/Q125H/Q178H/Q39Y/Q99D/R42S/S66Y/T262R/V115G/W38E); test: biochemical; format: binding; conditions: read-out: binds with good affinity to DR11
Sequence of HLA-DR11 (DRB1*1101) (P01903 26-254 limits assumed, other chains not shown): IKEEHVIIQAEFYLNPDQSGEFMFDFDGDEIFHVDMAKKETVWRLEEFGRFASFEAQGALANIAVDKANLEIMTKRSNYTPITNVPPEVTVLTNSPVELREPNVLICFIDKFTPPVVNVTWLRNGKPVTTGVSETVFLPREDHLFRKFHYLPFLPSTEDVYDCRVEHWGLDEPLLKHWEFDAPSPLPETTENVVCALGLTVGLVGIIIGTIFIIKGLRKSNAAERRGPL

HLA-DR13 (DRB1*1301) = HLA-DR13 (DRB1*1301) (Homo sapiens, UniProt P01903+P01911, A100E/A169T/K41T/L162R/M171V/P40S/Q125H/Q178H/Q39Y/Q99D/R42S/S66N/T262R/W38E/Y61H); test: biochemical; format: binding; conditions: read-out: binds with good affinity to DR13
HLA-DR15 (DRB1*1501) = target: T2, HLA-DR15 (DRB1*1501) (Homo sapiens, UniProt P01903+P01911); test: biochemical; format: binding; conditions: DRB1*1501; read-out: binds with good affinity to DR15
T2 construct: endogenous in cells; host or cells: homozygous EBV-transformed human B lymphocyte lines; immunopurified with antibody L243

HLA-DRB5 (DRB5*0101) = target: T3, HLA-DRB5 (DRB5*0101) (Homo sapiens, UniProt P01903+Q30154); test: biochemical; format: binding; conditions: read-out: binds with good affinity to DRB5
T3 construct: endogenous in cells; host or cells: homozygous EBV-transformed human B lymphocyte lines; immunopurified with antibody L243

HLA-DP402 (DPB1*0402) = HLA-DP402 (DPB1*0402) (Homo sapiens, UniProt P04440+P20036, A65V/A84D/A85E/L207M); test: biochemical; format: binding; conditions: DP*0402; read-out: binds with good affinity to DP402
DR3 = test: DR3
Description: (§1) Table printed on a drawing sheet, Figure 2
Where the first naming reader finds the target: head: DR3

DR4 = test: DR4
DR7 = test: DR7
DR13 = test: DR13
Description: as §1
Where the first naming reader finds the target: head: DR13

DR15 = test: DR15
DRB3 = test: DRB3
DRB4 = test: DRB4
Description: as §1
Where the first naming reader finds the target: head: DRB4

DRB5 = test: DRB5
DR11 = test: DR11
Description: as §1
Where the first naming reader finds the target: head: DR11

DP401 = test: DP401
HLA-DR3 (DRB1*0301) = target: T4, HLA-DR3 (DRB1*0301) (Homo sapiens, UniProt P01903+P01911, A100K/A102G/A103R/A169T/F55Y/I96L/K41T/L162R/M171V/P40S/Q125H/Q178H/Q39Y/R42S/S66N/T106N/T262R/W38E/Y61H); test: biochemical; format: binding; conditions: read-out: binds with good affinity to DR3
T4 construct: endogenous in cells; host or cells: homozygous EBV-transformed human B lymphocyte lines; immunopurified with antibody L243

HLA-DR4 (DRB1*0401) = target: T5, HLA-DR4 (DRB1*0401) (Homo sapiens, UniProt P01903+P01911, A100K/A169T/F76Y/I96L/K127E/L162R/M171V/N62H/P40V/Q125Y/R42H/S133A/S149N/S66Y/V115G/V209L/W38E); test: biochemical; format: binding; conditions: read-out: binds with good affinity to DR4
T5 construct: endogenous in cells; host or cells: homozygous EBV-transformed human B lymphocyte lines; immunopurified with antibody L243

HLA-DRB4 (DRB4*0101) = target: T6, HLA-DRB4 (DRB4*0101) (Homo sapiens, UniProt P01903+P13762, G164S); test: biochemical; format: binding; conditions: read-out: binds with good affinity to DRB4
T6 construct: endogenous in cells; host or cells: homozygous EBV-transformed human B lymphocyte lines; immunopurified with antibody L243

[1] = test system: T lymphocytes derived from PBMCs from patients chronically infected with HCV; format: cell-based, human; conditions: supernatant 48 h, —: not detected
DP402 = test: DP402
HLA-DRB3 (DRB3*0101) = target: T7, HLA-DRB3 (DRB3*0101) (Homo sapiens, UniProt P01903+P79483); test: HLA II/peptide binding assay, HLA-DRB3; conditions: read-out: binds with good affinity to DRB3
T7 construct: endogenous in cells; host or cells: homozygous EBV-transformed human B lymphocyte lines; immunopurified with antibody L243

[2] = read-out: binds with good affinity to DR1

SMILES | IC50 (HLA-DR1 (DRB1*0101); [2]) [nM] | IC50 (HLA-DR7 (DRB1*0701)) [nM] | IC50 (HLA-DR11 (DRB1*1101)) [nM] | IC50 (HLA-DR13 (DRB1*1301)) [nM] | IC50 (HLA-DR15 (DRB1*1501)) [nM] | IC50 (HLA-DRB5 (DRB5*0101)) [nM] | IC50 (HLA-DP402 (DPB1*0402)) [nM] | IC50 (DR3) [nM] | IC50 (DR7) [nM] | IC50 (DR15) [nM] | IC50 (DRB3) [nM] | IC50 (DRB4) [nM] | IC50 (DRB5) [nM] | IC50 (DR11) [nM] | IC50 (DP401) [nM] | IC50 (HLA-DRB4 (DRB4*0101)) [nM] | IC50 (DP402) [nM] | also measured
CC[C@H](C)[C@H](NC(=O)[C@H](CCC(N)=O)NC(=O)CNC(=O)CNC(=O)CNC(=O)[C@@H]1CCCN1C(=O)[C@H](Cc1ccccc1)NC(=O)[C@H](CCCCN)NC(=O)[C@@H](NC(=O)[C@H](CC(=O)O)NC(=O)[C@H](CCC(N)=O)NC(=O)[C@@H]1CCCN1)C(C)C)C(=O)N[C@H](C(=O)NCC(=O)NCC(=O)N[C@H](C(=O)N[C@@H](Cc1ccc(O)cc1)C(=O)N[C@@H](CC(C)C)C(=O)N[C@@H](CC(C)C)C(=O)N1CCC[C@H]1C(=O)N[C@@H](CCCNC(=N)N)C(=O)N[C@@H](CCCNC(=N)N)C(=O)NCC(=O)N1CCC[C@H]1C(=O)N[C@@H](CCCNC(=N)N)C(=O)N[C@@H](CC(C)C)C(=O)NCC(=O)N[C@H](C(=O)N[C@@H](CCCNC(=N)N)C(=O)O)C(C)C)C(C)C)C(C)C [1C 19-47] | < 1000 | < 1000 | < 1000 | < 1000 | < 1000 | < 1000 | < 1000 | > 100000 | 483 | 158 | > 100000 | 6000 | 9 | 58 | 4520 | – | – | IC50 (DR4): 70000 nM; IC50 (DR13): 288 nM
CC[C@H](C)[C@H](NC(=O)[C@H](CCC(=O)O)NC(=O)[C@H](CCCNC(=N)N)NC(=O)CN)C(=O)N[C@@H](CC(C)C)C(=O)N[C@@H](CC(C)C)C(=O)NCC(=O)N1CCC[C@H]1C(=O)N[C@@H](C)C(=O)N[C@@H](CC(=O)O)C(=O)NCC(=O)N[C@@H](CCSC)C(=O)N[C@H](C(=O)N[C@@H](CO)C(=O)N[C@@H](CCCCN)C(=O)NCC(=O)N[C@@H](Cc1c[nH]c2ccccc12)C(=O)N[C@@H](CCCNC(=N)N)C(=O)N[C@@H](CC(C)C)C(=O)N[C@@H](CC(C)C)C(=O)N[C@@H](C)C(=O)N1CCC[C@H]1C(=O)N[C@H](C(=O)N[C@H](C(=O)N[C@@H](C)C(=O)N[C@@H](Cc1ccc(O)cc1)C(=O)N[C@@H](C)C(=O)N[C@@H](CCC(N)=O)C(=O)N[C@@H](CCC(N)=O)C(=O)N[C@H](C(=O)N[C@@H](CCCNC(=N)N)C(=O)O)[C@@H](C)O)[C@@H](C)O)[C@@H](C)CC)C(C)C [8N 1007-1037] | < 1000 | < 1000 | < 1000 | < 1000 | < 1000 | < 1000 | < 1000 | 200 | 88 | 30 | 15000 | 60 | 2 | 1 | 7200 | < 1000 | 881 | IC50 (HLA-DR1 (DRB1*0101); competition with biotinylated tracer HA 306-318, read-out: IC50, binding to HLA-DR1): 2 nM; affinity for HLA-DR1 (in words) (HLA-DR1 (DRB1*0101); legend of FIG. 4): high affinity; IC50 (HLA-DR3 (DRB1*0301)): < 1000 nM; IC50 (HLA-DR4 (DRB1*0401)): < 1000 nM; IL10 ([1]; patient 067): 43 pg/mL; IL10 ([1]; patient 078): 41 pg/mL
CC[C@H](C)[C@H](NC(=O)CNC(=O)[C@@H]1CCCN1C(=O)[C@@H](N)CCCCN)C(=O)N[C@@H](Cc1ccc(O)cc1)C(=O)N[C@@H](CCCNC(=N)N)C(=O)N[C@@H](Cc1ccccc1)C(=O)N[C@H](C(=O)N[C@@H](C)C(=O)N1CCC[C@H]1C(=O)NCC(=O)N[C@@H](CCC(=O)O)C(=O)N[C@@H](CCCNC(=N)N)C(=O)N1CCC[C@H]1C(=O)N[C@@H](CO)C(=O)NCC(=O)N[C@@H](CCSC)C(=O)N[C@@H](Cc1ccccc1)C(=O)N[C@@H](CC(=O)O)C(=O)O)C(C)C [27N 1495-1513] (H-KPGIYRFVAPGERPSGMFD-OH; N-terminus and C-terminus assumed) | < 1000 | < 1000 | < 1000 | – | < 1000 | < 1000 | – | – | 313 | 150 | 40000 | – | 2 | 175 | > 100000 | < 1000 | > 100000 | IC50 (HLA-DRB3 (DRB3*0101)): < 1000 nM
